Toxic doses and inconclusive results are not listed. The calls were made as follows: active = survival T/C of 150% or more; inactive = T/C below 125% in these data.
System: CD2F1 mice, L1210 leukemia ip, survival T/C
Experiment: NCI In Vivo Anticancer Drug Screen. Data for tumor model L1210 Leukemia (intraperitoneal) in CD2F1 (CDF1) mice
Conditions: endpoint: mean survival time, higher = longer survival
Outline: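 Tumor-bearing mice (transplanted tumor) were split into treated and vehicle control groups, and the measured endpoint of each treated group was divided by that of its vehicle controls.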

[1] = dose: 100.0 mg/kg/injection, schedule: Q01DX009 (ip), vehicle: saline with Tween-80
[2] = dose: 200.0 mg/kg/injection, schedule: Q01DX009 (ip), vehicle: saline with Tween-80
[3] = dose: 400.0 mg/kg/injection, schedule: Q01DX009 (ip), vehicle: saline with Tween-80
[4] = dose: 50.0 mg/kg/injection, schedule: Q04DX002 (ip), vehicle: saline with Tween-80
[5] = dose: 100.0 mg/kg/injection, schedule: Q04DX002 (ip), vehicle: saline with Tween-80
[6] = dose: 25.0 mg/kg/injection, schedule: Q01DX009 (ip), vehicle: saline with Tween-80
[7] = dose: 50.0 mg/kg/injection, schedule: Q01DX009 (ip), vehicle: saline with Tween-80
[8] = dose: 100.0 mg/kg/injection, schedule: Q01DX001 (ip), vehicle: saline with Tween-80
[9] = dose: 200.0 mg/kg/injection, schedule: Q01DX001 (ip), vehicle: saline with Tween-80
[10] = dose: 400.0 mg/kg/injection, schedule: Q01DX001 (ip), vehicle: saline with Tween-80

Measured: T/C

Cc1ccc(Nc2ccc(O)c3c2C(=O)c2c(O)ccc(Nc4ccc(C)cc4)c2C3=O)cc1
inactive: [1] 88 % of control | [2] 88 % of control | [3] 98 % of control

CC1CC2CC(=O)CCC2(C)C2CCC3(C)C(O)CCC3C12 (stereo not given)
inactive: dose: 18.75 mg/kg/injection, schedule: Q01DX009 (ip), vehicle: Klucel (hydroxypropylcellulose) (HPC) 100 % of control | dose: 37.5 mg/kg/injection, schedule: Q01DX009 (ip), vehicle: Klucel (hydroxypropylcellulose) (HPC) 100 % of control | dose: 75.0 mg/kg/injection, schedule: Q01DX009 (ip), vehicle: Klucel (hydroxypropylcellulose) (HPC) 100 % of control | dose: 150.0 mg/kg/injection, schedule: Q01DX009 (ip), vehicle: Klucel (hydroxypropylcellulose) (HPC) 95 % of control | dose: 300.0 mg/kg/injection, schedule: Q01DX009 (ip), vehicle: Klucel (hydroxypropylcellulose) (HPC) 95 % of control

CC1(C(=O)O)CC2CCC1CC2 (stereo not given)
inactive: [4] 96 % of control | [5] 107 % of control | dose: 200.0 mg/kg/injection, schedule: Q04DX002 (ip), vehicle: saline with Tween-80 100 % of control | dose: 400.0 mg/kg/injection, schedule: Q04DX002 (ip), vehicle: saline with Tween-80 96 % of control

Cc1nn(CCO)c(C)c1N=[N+]([O-])c1c(C)nn(CCO)c1C
inactive: dose: 3.12 mg/kg/injection, schedule: Q01DX009 (ip), vehicle: Klucel (hydroxypropylcellulose) (HPC) 102 % of control | dose: 3.12 mg/kg/injection, schedule: Q01DX009 (ip), vehicle: saline with Tween-80 98 % of control | dose: 6.25 mg/kg/injection, schedule: Q01DX009 (ip), vehicle: Klucel (hydroxypropylcellulose) (HPC) 95 % of control | dose: 6.25 mg/kg/injection, schedule: Q01DX009 (ip), vehicle: saline with Tween-80 103 % of control | dose: 12.5 mg/kg/injection, schedule: Q01DX009 (ip), vehicle: Klucel (hydroxypropylcellulose) (HPC) 96 % of control | dose: 12.5 mg/kg/injection, schedule: Q01DX009 (ip), vehicle: saline with Tween-80 104 % of control | dose: 25.0 mg/kg/injection, schedule: Q01DX009 (ip), vehicle: Klucel (hydroxypropylcellulose) (HPC) 95 % of control | [6] 106 % of control | dose: 50.0 mg/kg/injection, schedule: Q01DX009 (ip), vehicle: Klucel (hydroxypropylcellulose) (HPC) 101 % of control | [7] 103 % of control | dose: 50.0 mg/kg/injection, schedule: Q04DX003 (ip), vehicle: Klucel (hydroxypropylcellulose) (HPC) 113 % of control | dose: 100.0 mg/kg/injection, schedule: Q01DX009 (ip), vehicle: Klucel (hydroxypropylcellulose) (HPC) 95 % of control | dose: 100.0 mg/kg/injection, schedule: Q04DX003 (ip), vehicle: Klucel (hydroxypropylcellulose) (HPC) 117 % of control

Nc1ccc(-n2nc3ccc4ccccc4c3n2)cc1
inactive: dose: 25.0 mg/kg/injection, schedule: Q04DX002 (ip), vehicle: saline with Tween-80 98 % of control | [4] 98 % of control | [5] 103 % of control

c1ccc(CN2CCC(Nc3ccccc3)(c3nnnn3C3CCCCC3)CC2)cc1
inactive: [8] 95 % of control | [9] 96 % of control | [10] 90 % of control

O=C(N/N=C/c1ccccc1)c1nn[nH]n1
inactive: [8] 96 % of control | [9] 88 % of control | [10] 88 % of control

O=P(NC1CCCCC1)(NC1CCCCC1)NC1CCCCC1
inactive: dose: 50.0 mg/kg/injection, schedule: Q04DX003 (ip), vehicle: saline with Tween-80 93 % of control | dose: 100.0 mg/kg/injection, schedule: Q04DX003 (ip), vehicle: saline with Tween-80 90 % of control | dose: 200.0 mg/kg/injection, schedule: Q04DX003 (ip), vehicle: saline with Tween-80 91 % of control

CN1C(=O)CC(c2ccc(NC(=O)CI)cc2)C1=O (stereo not given)
inactive: dose: 6.25 mg/kg/injection, schedule: Q04DX002 (ip), vehicle: saline with Tween-80 92 % of control | dose: 12.5 mg/kg/injection, schedule: Q04DX002 (ip), vehicle: saline with Tween-80 96 % of control

Cc1ccc(S(=O)(=O)Nc2ccccc2-c2nc3ccc(C)cc3c(=O)o2)cc1
inactive: [1] 100 % of control | [2] 91 % of control | [3] 96 % of control

CSC(Cl)=C(Cl)Cl
inactive: [6] 97 % of control | [7] 95 % of control | [1] 97 % of control
